Source: US9018388B2, “Pesticidal compositions and processes related thereto” (Dow AgroSciences LLC, priority 2012, dated 2015)

Assays:
[1] = test system: Corn Earworm (CEW) (Helicoverpa zea); test: Bioassay on corn earworm (CEW), 128-well diet tray assay; assay type: in vivo; conditions: Helicoverpa zea; Corn earworm, 50 μg/cm^2; read-out: % Mortality CEW 50 μg/cm^2
Procedure: (§1) Bioassays on Beet Armyworm (“BAW”) and Corn Earworm (“CEW”)
(§2) Certain molecules disclosed in this document were tested against BAW and CEW using procedures described in the following examples. In the reporting of the results, the “BAW & CEW Rating Table” was used (See Table Section).
Bioassays on CEW (Helicoverpa zea)
Bioassays on CEW were conducted using a 128-well diet tray assay. One to five second instar CEW larvae were placed in each well (3 mL) of the diet tray that had been previously filled with 1 mL of artificial diet to which 50 μg/cm^2 of the test compound (dissolved in 50 μL of 90:10 acetone-water mixture) had been applied (to each of eight wells) and then allowed to dry. Trays were covered with a clear self-adhesive cover and held at 25° C., 14:10 light-dark for five to seven days. Percent mortality was recorded for the larvae in each well; activity in the eight wells was then averaged. The results are indicated in the table entitled “Table 5: Biological Results” (See Table Section).

[2] = test system: Beet Armyworm (BAW) (Spodoptera exigua); test: Bioassay on beet armyworm (BAW), 128-well diet tray assay; assay type: in vivo; conditions: Spodoptera exigua; Beet armyworm, 50 μg/cm^2; read-out: % Mortality BAW 50 μg/cm^2
Procedure: as §1, §2
Bioassays on BAW (Spodoptera exigua)
Bioassays on BAW were conducted using a 128-well diet tray assay. One to five second instar BAW larvae were placed in each well (3 mL) of the diet tray that had been previously filled with 1 mL of artificial diet to which 50 μg/cm^2 of the test compound (dissolved in 50 μL of 90:10 acetone-water mixture) had been applied (to each of eight wells) and then allowed to dry. Trays were covered with a clear self-adhesive cover and held at 25° C., 14:10 light-dark for five to seven days. Percent mortality was recorded for the larvae in each well; activity in the eight wells was then averaged. The results are indicated in the table entitled “Table 5: Biological Results” (See Table Section).

Question: With CC(C)c1ccccc1N1CS/C1=N\N=C\c1ccc(-c2ncn(-c3ccc4c(c3)OC(F)(F)O4)n2)cc1 [Compound 249C] as the molecule, how does the pest or weed control at 50 µg/cm2, 50 µg/cm2 [1] read?
Answer: Its pest or weed control at 50 µg/cm2, 50 µg/cm2 is 50 to 100%.

Question: And the pest or weed control at 50 µg/cm2, 50 µg/cm2 [2]?
Answer: The pest or weed control at 50 µg/cm2, 50 µg/cm2 was 50 to 100%.

Question: How did the pest or weed control at 50 µg/cm2, 50 µg/cm2 [1] turn out when O=C1CS/C(=N\N=C\c2ccc(-c3ncn(-c4ccc(OC(F)(F)F)cc4)n3)cc2)N1c1ccccc1OC(F)(F)F [Compound 124C] was run?
Answer: Its pest or weed control at 50 µg/cm2, 50 µg/cm2 is 50 to 100%.

Question: What about the pest or weed control at 50 µg/cm2, 50 µg/cm2 [2] of the same molecule?
Answer: Its pest or weed control at 50 µg/cm2, 50 µg/cm2 is 50 to 100%.

Question: What does the source list for O=C1CS/C(=N\N=C\c2ccc(-c3ncn(-c4ccc(OC(F)(F)F)cc4)n3)cc2)N1c1c(Cl)cccc1Cl [Compound 70C]?
Answer: pest or weed control at 50 µg/cm2, 50 µg/cm2 [1]: 50 to 100%; pest or weed control at 50 µg/cm2, 50 µg/cm2 [2]: 50 to 100%

Question: Which results are given for COc1cc(C)c(/N=C(/N/N=C/c2ccc(-c3ncn(-c4ccc(OC(F)(F)F)cc4)n3)cc2)SCC(=O)NCCCNC(=O)OC(C)(C)C)c(C)c1 [Compound 60C]?
Answer: pest or weed control at 50 µg/cm2, 50 µg/cm2 [1]: 50 to 100%; pest or weed control at 50 µg/cm2, 50 µg/cm2 [2]: 50 to 100%

Question: How did the pest or weed control at 50 µg/cm2, 50 µg/cm2 [1] turn out when CC1CCS/C(=N\N=C\c2ccc(-c3ncn(-c4ccc(OC(F)(F)F)cc4)n3)cc2)N1c1ccccc1OC(F)(F)F (centres unmarked) [Compound 216C] was run?
Answer: Its pest or weed control at 50 µg/cm2, 50 µg/cm2 is 50 to 100%.

Question: What about the pest or weed control at 50 µg/cm2, 50 µg/cm2 [2] of the same molecule?
Answer: Its pest or weed control at 50 µg/cm2, 50 µg/cm2 is 50 to 100%.

Question: What does the source list for Cc1cccc(C)c1N1C(=O)CS/C1=N\N=C\c1ccc(-c2cnn(-c3ccc(OC(F)(F)F)cc3)c2)cc1 [Compound 104C]?
Answer: pest or weed control at 50 µg/cm2, 50 µg/cm2 [1]: 50 to 100%; pest or weed control at 50 µg/cm2, 50 µg/cm2 [2]: 50 to 100%

Question: For FC(F)Oc1ccccc1N1CCS/C1=N\N=C\c1ccc(-c2ncn(-c3ccc(OC(F)(F)F)cc3)n2)cc1 [Compound 152C], which pest or weed control at 50 µg/cm2, 50 µg/cm2 [1] is on record?
Answer: Its pest or weed control at 50 µg/cm2, 50 µg/cm2 is 50 to 100%.

Question: What about the pest or weed control at 50 µg/cm2, 50 µg/cm2 [2] of the same molecule?
Answer: Its pest or weed control at 50 µg/cm2, 50 µg/cm2 is 50 to 100%.

Question: Which results are given for Cc1cccc(C)c1/N=C(/N/N=C/c1ccc(-c2ncn(-c3ccc(OC(F)(F)F)cc3)n2)cc1)SCc1ccc(C(F)(F)F)o1 [Compound 16C]?
Answer: pest or weed control at 50 µg/cm2, 50 µg/cm2 [1]: 50 to 100%; pest or weed control at 50 µg/cm2, 50 µg/cm2 [2]: 50 to 100%

Question: What does the source list for CC1CCS/C(=N\N=C\c2ccc(-c3ncn(-c4ccc(OC(F)(F)F)cc4)n3)cc2)N1c1c(Cl)cccc1C(F)(F)F (centres unmarked) [Compound 217C]?
Answer: pest or weed control at 50 µg/cm2, 50 µg/cm2 [1]: 50 to 100%; pest or weed control at 50 µg/cm2, 50 µg/cm2 [2]: 50 to 100%

Question: COc1cccc(N2CCCS/C2=N\N=C\c2ccc(-c3ncn(-c4ccc(OC(F)(F)F)cc4)n3)cc2)c1 [Compound 206C] was tested. Which pest or weed control at 50 µg/cm2, 50 µg/cm2 [1] did it give?
Answer: Its pest or weed control at 50 µg/cm2, 50 µg/cm2 is 50 to 100%.

Question: What about the pest or weed control at 50 µg/cm2, 50 µg/cm2 [2] of the same molecule?
Answer: Its pest or weed control at 50 µg/cm2, 50 µg/cm2 is 50 to 100%.

Question: With Cc1cccc(C)c1/N=C(/N/N=C/c1ccc(-c2ncn(-c3ccc(OC(F)(F)F)cc3)n2)cc1)SCC(=O)NCC(N)C(=O)O (centres unmarked) [Compound 63C] as the molecule, how does the pest or weed control at 50 µg/cm2, 50 µg/cm2 [1] read?
Answer: The pest or weed control at 50 µg/cm2, 50 µg/cm2 was 50 to 100%.

Question: And the pest or weed control at 50 µg/cm2, 50 µg/cm2 [2]?
Answer: The pest or weed control at 50 µg/cm2, 50 µg/cm2 was 50 to 100%.

Question: Cc1cs/c(=N\N=C\c2ccc(-c3ncn(-c4ccc(OC(F)(F)F)cc4)n3)cc2)n1-c1c(Cl)cccc1C(F)(F)F [Compound 169C] was tested. Which pest or weed control at 50 µg/cm2, 50 µg/cm2 [1] did it give?
Answer: Its pest or weed control at 50 µg/cm2, 50 µg/cm2 is 50 to 100%.

Question: And the pest or weed control at 50 µg/cm2, 50 µg/cm2 [2]?
Answer: The pest or weed control at 50 µg/cm2, 50 µg/cm2 was 50 to 100%.

Question: For CC1CS/C(=N\N=C\c2ccc(-c3ncn(-c4ccc(OC(F)(F)F)cc4)n3)cc2)N1c1ccccc1OC(F)F (centres unmarked) [Compound 164C], which pest or weed control at 50 µg/cm2, 50 µg/cm2 [1] is on record?
Answer: Its pest or weed control at 50 µg/cm2, 50 µg/cm2 is 50 to 100%.

Question: And the pest or weed control at 50 µg/cm2, 50 µg/cm2 [2]?
Answer: Its pest or weed control at 50 µg/cm2, 50 µg/cm2 is 50 to 100%.

Question: With COc1cc(C)c(N2C(=O)CSC2=NN=Cc2ccc(-c3ncn(-c4ccc(OC(F)(F)F)cc4)n3)cc2)c(C)c1 (stereo in doubt) [Compound 69C, (Z)-3-(4-methoxy-2,6-dimethylphenyl)-2-((E)-(4-(1-(4-(trifluoromethoxy)phenyl)-1H-1,2,4-triazol-3-yl)benzylidene)hydrazono)thiazolidin-4-one] as the molecule, how does the pest or weed control at 50 µg/cm2, 50 µg/cm2 [1] read?
Answer: The pest or weed control at 50 µg/cm2, 50 µg/cm2 was 50 to 100%.

Question: What about the pest or weed control at 50 µg/cm2, 50 µg/cm2 [2] of the same molecule?
Answer: The pest or weed control at 50 µg/cm2, 50 µg/cm2 was 50 to 100%.

Question: COc1ccc(N2/C(=N/N=C/c3ccc(-c4ncn(-c5ccc(OC(F)(F)F)cc5)n4)cc3)SCC2C)c(C)c1 (centres unmarked) [Compound 162C] was tested. Which pest or weed control at 50 µg/cm2, 50 µg/cm2 [1] did it give?
Answer: Its pest or weed control at 50 µg/cm2, 50 µg/cm2 is 50 to 100%.

Question: And the pest or weed control at 50 µg/cm2, 50 µg/cm2 [2]?
Answer: The pest or weed control at 50 µg/cm2, 50 µg/cm2 was 50 to 100%.

Question: With Cc1cccnc1N1CCCS/C1=N\N=C\c1ccc(-c2ncn(-c3ccc(OC(F)(F)F)cc3)n2)cc1 [Compound 198C] as the molecule, how does the pest or weed control at 50 µg/cm2, 50 µg/cm2 [1] read?
Answer: Its pest or weed control at 50 µg/cm2, 50 µg/cm2 is 50 to 100%.

Question: And the pest or weed control at 50 µg/cm2, 50 µg/cm2 [2]?
Answer: Its pest or weed control at 50 µg/cm2, 50 µg/cm2 is 50 to 100%.

Question: What does the source list for COc1cc(C)c(/N=C(\N/N=C/c2ccc(-c3ncn(-c4ccc(C(F)(F)F)cc4)n3)cc2)SCOC(=O)CNC(=O)OCc2ccccc2)c(C)c1 [Compound 45C]?
Answer: pest or weed control at 50 µg/cm2, 50 µg/cm2 [1]: 50 to 100%; pest or weed control at 50 µg/cm2, 50 µg/cm2 [2]: 50 to 100%

Question: CC(C)c1ccccc1N1/C(=N/N=C/c2ccc(-c3ncn(-c4ccc(OC(F)(F)F)cc4)n3)cc2)SCC1C (racemic) [Compound 155C] was tested. Which pest or weed control at 50 µg/cm2, 50 µg/cm2 [1] did it give?
Answer: The pest or weed control at 50 µg/cm2, 50 µg/cm2 was 50 to 100%.

Question: What about the pest or weed control at 50 µg/cm2, 50 µg/cm2 [2] of the same molecule?
Answer: The pest or weed control at 50 µg/cm2, 50 µg/cm2 was 50 to 100%.

Question: With Cc1cccnc1N1C(=O)CS/C1=N\N=C\c1ccc(-c2ncn(-c3ccc(OC(F)(F)F)cc3)n2)cc1 [Compound 117C] as the molecule, how does the pest or weed control at 50 µg/cm2, 50 µg/cm2 [1] read?
Answer: Its pest or weed control at 50 µg/cm2, 50 µg/cm2 is 50 to 100%.

Question: And the pest or weed control at 50 µg/cm2, 50 µg/cm2 [2]?
Answer: Its pest or weed control at 50 µg/cm2, 50 µg/cm2 is 50 to 100%.
